Where a name gives a salt, the structure may show the parent alone.
Tested on: Bacteriophage Phi X174 (ATCC 13706-81)
Experiment: Virucidal infectivity (percent reduction in virus infectivity, E. coli outgrowth with resazurin dye);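 note: exposed phage diluted into broth, E. coli outgrowth followed 16-24 h at 37 °C by fluorescence rate, unexposed phage set as 100% signal, phage-free as 0%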
Conditions: 10-minute exposure
[1] = secondary agent 3 mM + Maleic Acid 3 mM
[2] = secondary agent 3 mM + Phosphonc Acid 50-150 mM
[3] = secondary agent 3 mM + Sulfosuccinic Acid 10-32 mM
[4] = secondary agent 9 mM + Maleic Acid 3 mM
[5] = secondary agent 9 mM + Phosphonc Acid 50-150 mM
[6] = secondary agent 9 mM + Sulfosuccinic Acid 10-32 mM
[7] = secondary agent 28 mM + Maleic Acid 3 mM
[8] = secondary agent 28 mM + Phosphonc Acid 50-150 mM
[9] = secondary agent 28 mM + Sulfosuccinic Acid 10-32 mM
[10] = secondary agent 85 mM + Maleic Acid 3 mM
[11] = secondary agent 85 mM + Phosphonc Acid 50-150 mM
[12] = secondary agent 85 mM + Sulfosuccinic Acid 10-32 mM

Method: Bacteriophage Phi X174 (ATCC 13706-81) was added 1:10 (−108 plaque forming units (PFU) per sample) into a solution containing the composition of interest. Following a 10-minute exposure, the sample was transferred 1:10 into Tryptic Soy Broth (TSB). Following 10 minutes in TSB, a second 1:10 dilution was completed into an outgrowth solution for the Phi X174 host (E. coli ATCC 13706) that contained TSB and a resazurin dye. E. coli outgrowth was then monitored at 37° C. for 16-24 hours and the rate of fluorescence development was calculated. The rate observed when Phi X174 was not exposed to any composition represented a 100% Phi X174 signal. The rate observed without Phi X174 present represented a “0% signal.” The rate obtained following Phi X174 exposure to a given composition was compared to the signal obtained with no exposure to calculate the “percent reduction in virus infectivity.”

SMILES: N=C(N)NN [Aminoguanidine Hydrochloride]
- % Reduction, Secondary Antiviral Agent Alone (agent alone 6 mM): 2%
- % Reduction, Secondary Antiviral Agent Alone (agent alone 18 mM): 7%
- % Reduction, Secondary Antiviral Agent Alone (agent alone 53 mM): 4%
- % Reduction, Secondary Antiviral Agent Alone (agent alone 158 mM): 1%
- reduction in virus infectivity, in Combination with Maleic Acid (3 mM) [1]: 12%
- reduction in virus infectivity, in Combination with Phosphonc Acid (50-150 mM) [2]: 50%
- reduction in virus infectivity, in Combination with Sulfosuccinic Acid (10-32 mM) [3]: 0%
- reduction in virus infectivity, in Combination with Maleic Acid (3 mM) [4]: 4%
- reduction in virus infectivity, in Combination with Phosphonc Acid (50-150 mM) [5]: 86%
- reduction in virus infectivity, in Combination with Sulfosuccinic Acid (10-32 mM) [6]: 0%
- reduction in virus infectivity, in Combination with Maleic Acid (3 mM) [7]: 0%
- reduction in virus infectivity, in Combination with Phosphonc Acid (50-150 mM) [8]: 50%
- reduction in virus infectivity, in Combination with Sulfosuccinic Acid (10-32 mM) [9]: 4%
- reduction in virus infectivity, in Combination with Maleic Acid (3 mM) [10]: 0%
- reduction in virus infectivity, in Combination with Phosphonc Acid (50-150 mM) [11]: 99%
- reduction in virus infectivity, in Combination with Sulfosuccinic Acid (10-32 mM) [12]: 13%

SMILES: [Cl][Cu][Cl] [Copper (II) Chionde]
- % Reduction, Secondary Antiviral Agent Alone (agent alone 1 mM): 20%
- % Reduction, Secondary Antiviral Agent Alone (agent alone 4 mM): 18%
- % Reduction, Secondary Antiviral Agent Alone (agent alone 9 mM): 23%
- % Reduction, Secondary Antiviral Agent Alone (agent alone 27 mM): 99%
- reduction in virus infectivity, in Combination with Maleic Acid (3 mM) (secondary agent 26 mM + Maleic Acid 3 mM): 70%
- reduction in virus infectivity, in Combination with Phosphonc Acid (50-150 mM) (secondary agent 26 mM + Phosphonc Acid 50-150 mM): 99%
- reduction in virus infectivity, in Combination with Sulfosuccinic Acid (10-32 mM) (secondary agent 26 mM + Sulfosuccinic Acid 10-32 mM): 99%
- reduction in virus infectivity, in Combination with Maleic Acid (3 mM) (secondary agent 1-3 mM + Maleic Acid 3 mM): 72%
- reduction in virus infectivity, in Combination with Phosphonc Acid (50-150 mM) (secondary agent 1-3 mM + Phosphonc Acid 50-150 mM): 44%
- reduction in virus infectivity, in Combination with Sulfosuccinic Acid (10-32 mM) (secondary agent 1-3 mM + Sulfosuccinic Acid 10-32 mM): 94%
- reduction in virus infectivity, in Combination with Maleic Acid (3 mM) (secondary agent 4-6 mM + Maleic Acid 3 mM): 57%
- reduction in virus infectivity, in Combination with Phosphonc Acid (50-150 mM) (secondary agent 4-6 mM + Phosphonc Acid 50-150 mM): 87%
- reduction in virus infectivity, in Combination with Sulfosuccinic Acid (10-32 mM) (secondary agent 4-6 mM + Sulfosuccinic Acid 10-32 mM): 96%
- reduction in virus infectivity, in Combination with Maleic Acid (3 mM) (secondary agent 11-13 mM + Maleic Acid 3 mM): 38%
- reduction in virus infectivity, in Combination with Phosphonc Acid (50-150 mM) (secondary agent 11-13 mM + Phosphonc Acid 50-150 mM): 80%
- reduction in virus infectivity, in Combination with Sulfosuccinic Acid (10-32 mM) (secondary agent 11-13 mM + Sulfosuccinic Acid 10-32 mM): 99%

SMILES: CCCCCCCCCCO[C@@H]1O[C@H](CO)[C@@H](O)[C@H](O)[C@H]1O [EcoSense 3000, Decyl Glucoside]
- % Reduction, Secondary Antiviral Agent Alone (agent alone 8 mM): 14%
- % Reduction, Secondary Antiviral Agent Alone (agent alone 23 mM): 0%
- % Reduction, Secondary Antiviral Agent Alone (agent alone 69 mM): 0%
- % Reduction, Secondary Antiviral Agent Alone (agent alone 207 mM): 0%
- reduction in virus infectivity, in Combination with Maleic Acid (3 mM) (secondary agent 0.3 mM + Maleic Acid 3 mM): 0%
- reduction in virus infectivity, in Combination with Maleic Acid (3 mM) (secondary agent 1 mM + Maleic Acid 3 mM): 0%
- reduction in virus infectivity, in Combination with Maleic Acid (3 mM) (secondary agent 7 mM + Maleic Acid 3 mM): 0%
- reduction in virus infectivity, in Combination with Maleic Acid (3 mM) (secondary agent 37 mM + Maleic Acid 3 mM): 0%

SMILES: N=C(N)N [Guanidine Hydrochloride]
- % Reduction, Secondary Antiviral Agent Alone (agent alone 6 mM): 0%
- % Reduction, Secondary Antiviral Agent Alone (agent alone 18 mM): 0%
- % Reduction, Secondary Antiviral Agent Alone (agent alone 55 mM): 0%
- % Reduction, Secondary Antiviral Agent Alone (agent alone 164 mM): 0%
- reduction in virus infectivity, in Combination with Maleic Acid (3 mM) [1]: 0%
- reduction in virus infectivity, in Combination with Phosphonc Acid (50-150 mM) [2]: 40%
- reduction in virus infectivity, in Combination with Sulfosuccinic Acid (10-32 mM) [3]: 10%
- reduction in virus infectivity, in Combination with Maleic Acid (3 mM) (secondary agent 10 mM + Maleic Acid 3 mM): 0%
- reduction in virus infectivity, in Combination with Phosphonc Acid (50-150 mM) (secondary agent 10 mM + Phosphonc Acid 50-150 mM): 34%
- reduction in virus infectivity, in Combination with Sulfosuccinic Acid (10-32 mM) (secondary agent 10 mM + Sulfosuccinic Acid 10-32 mM): 12%
- reduction in virus infectivity, in Combination with Maleic Acid (3 mM) (secondary agent 29 mM + Maleic Acid 3 mM): 0%
- reduction in virus infectivity, in Combination with Phosphonc Acid (50-150 mM) (secondary agent 29 mM + Phosphonc Acid 50-150 mM): 34%
- reduction in virus infectivity, in Combination with Sulfosuccinic Acid (10-32 mM) (secondary agent 29 mM + Sulfosuccinic Acid 10-32 mM): 1%
- reduction in virus infectivity, in Combination with Maleic Acid (3 mM) (secondary agent 86 mM + Maleic Acid 3 mM): 0%
- reduction in virus infectivity, in Combination with Phosphonc Acid (50-150 mM) (secondary agent 86 mM + Phosphonc Acid 50-150 mM): 46%
- reduction in virus infectivity, in Combination with Sulfosuccinic Acid (10-32 mM) (secondary agent 86 mM + Sulfosuccinic Acid 10-32 mM): 0%

SMILES: CCCCCCCC/C=C\CCCCCCCC(=O)N(C)CCS(=O)(=O)[O-].[Na+] [Hostapon TPHC, Sodium Methyl Oleoyl Taurate]
- % Reduction, Secondary Antiviral Agent Alone (agent alone 25 mM): 0%
- % Reduction, Secondary Antiviral Agent Alone (agent alone 42 mM): 0%
- % Reduction, Secondary Antiviral Agent Alone (agent alone 50 mM): 0%
- % Reduction, Secondary Antiviral Agent Alone (agent alone 67 mM): 0%
- reduction in virus infectivity, in Combination with Maleic Acid (3 mM) (secondary agent 25 mM + Maleic Acid 3 mM): 0%
- reduction in virus infectivity, in Combination with Phosphonc Acid (50-150 mM) (secondary agent 25 mM + Phosphonc Acid 50-150 mM): 99%
- reduction in virus infectivity, in Combination with Sulfosuccinic Acid (10-32 mM) (secondary agent 25 mM + Sulfosuccinic Acid 10-32 mM): 99%
- reduction in virus infectivity, in Combination with Maleic Acid (3 mM) (secondary agent 42 mM + Maleic Acid 3 mM): 0%
- reduction in virus infectivity, in Combination with Phosphonc Acid (50-150 mM) (secondary agent 42 mM + Phosphonc Acid 50-150 mM): 96%
- reduction in virus infectivity, in Combination with Sulfosuccinic Acid (10-32 mM) (secondary agent 42 mM + Sulfosuccinic Acid 10-32 mM): 88%
- reduction in virus infectivity, in Combination with Maleic Acid (3 mM) (secondary agent 50 mM + Maleic Acid 3 mM): 0%
- reduction in virus infectivity, in Combination with Phosphonc Acid (50-150 mM) (secondary agent 50 mM + Phosphonc Acid 50-150 mM): 99%
- reduction in virus infectivity, in Combination with Sulfosuccinic Acid (10-32 mM) (secondary agent 50 mM + Sulfosuccinic Acid 10-32 mM): 50%
- reduction in virus infectivity, in Combination with Maleic Acid (3 mM) (secondary agent 67 mM + Maleic Acid 3 mM): 0%
- reduction in virus infectivity, in Combination with Phosphonc Acid (50-150 mM) (secondary agent 67 mM + Phosphonc Acid 50-150 mM): 99%
- reduction in virus infectivity, in Combination with Sulfosuccinic Acid (10-32 mM) (secondary agent 67 mM + Sulfosuccinic Acid 10-32 mM): 1%

SMILES: CCCCCCCCCC[N+](C)(C)[O-] [Mackamine C-10, Decylamina oxide]
- % Reduction, Secondary Antiviral Agent Alone (agent alone 6 mM): 7%
- % Reduction, Secondary Antiviral Agent Alone (agent alone 18 mM): 4%
- % Reduction, Secondary Antiviral Agent Alone (agent alone 53 mM): 11%
- % Reduction, Secondary Antiviral Agent Alone (agent alone 183 mM): 30%
- reduction in virus infectivity, in Combination with Maleic Acid (3 mM) (secondary agent 30 mM + Maleic Acid 3 mM): 10%
- reduction in virus infectivity, in Combination with Phosphonc Acid (50-150 mM) (secondary agent 30 mM + Phosphonc Acid 50-150 mM): 0%
- reduction in virus infectivity, in Combination with Sulfosuccinic Acid (10-32 mM) (secondary agent 30 mM + Sulfosuccinic Acid 10-32 mM): 6%
- reduction in virus infectivity, in Combination with Maleic Acid (3 mM) (secondary agent 49 mM + Maleic Acid 3 mM): 35%
- reduction in virus infectivity, in Combination with Phosphonc Acid (50-150 mM) (secondary agent 49 mM + Phosphonc Acid 50-150 mM): 0%
- reduction in virus infectivity, in Combination with Sulfosuccinic Acid (10-32 mM) (secondary agent 49 mM + Sulfosuccinic Acid 10-32 mM): 0%
- reduction in virus infectivity, in Combination with Maleic Acid (3 mM) (secondary agent 59 mM + Maleic Acid 3 mM): 64%
- reduction in virus infectivity, in Combination with Phosphonc Acid (50-150 mM) (secondary agent 59 mM + Phosphonc Acid 50-150 mM): 0%
- reduction in virus infectivity, in Combination with Sulfosuccinic Acid (10-32 mM) (secondary agent 59 mM + Sulfosuccinic Acid 10-32 mM): 2%
- reduction in virus infectivity, in Combination with Maleic Acid (3 mM) (secondary agent 79 mM + Maleic Acid 3 mM): 62%
- reduction in virus infectivity, in Combination with Phosphonc Acid (50-150 mM) (secondary agent 79 mM + Phosphonc Acid 50-150 mM): 0%
- reduction in virus infectivity, in Combination with Sulfosuccinic Acid (10-32 mM) (secondary agent 79 mM + Sulfosuccinic Acid 10-32 mM): 0%

SMILES: O=C(O)/C=C\C(=O)O [Maleic Acid]
- reduction in virus infectivity, Primary Antiviral Agent without secondary agent (None) (Maleic Acid 3 mM, no secondary agent): 1-8%

SMILES: NC(N)=O [Urea]
- % Reduction, Secondary Antiviral Agent Alone (agent alone 7 mM): 0%
- % Reduction, Secondary Antiviral Agent Alone (agent alone 20 mM): 0%
- % Reduction, Secondary Antiviral Agent Alone (agent alone 60 mM): 0%
- % Reduction, Secondary Antiviral Agent Alone (agent alone 180 mM): 0%
- reduction in virus infectivity, in Combination with Maleic Acid (3 mM) [1]: 8%
- reduction in virus infectivity, in Combination with Phosphonc Acid (50-150 mM) [2]: 57%
- reduction in virus infectivity, in Combination with Sulfosuccinic Acid (10-32 mM) [3]: 1%
- reduction in virus infectivity, in Combination with Maleic Acid (3 mM) [4]: 6%
- reduction in virus infectivity, in Combination with Phosphonc Acid (50-150 mM) [5]: 71%
- reduction in virus infectivity, in Combination with Sulfosuccinic Acid (10-32 mM) [6]: 0%
- reduction in virus infectivity, in Combination with Maleic Acid (3 mM) [7]: 1%
- reduction in virus infectivity, in Combination with Phosphonc Acid (50-150 mM) [8]: 53%
- reduction in virus infectivity, in Combination with Sulfosuccinic Acid (10-32 mM) [9]: 25%
- reduction in virus infectivity, in Combination with Maleic Acid (3 mM) [10]: 0%
- reduction in virus infectivity, in Combination with Phosphonc Acid (50-150 mM) [11]: 56%
- reduction in virus infectivity, in Combination with Sulfosuccinic Acid (10-32 mM) [12]: 0%

Source: patent US12728177B2, “Disinfectant composition with rapid antiviral efficacy” (priority 2015, dated 2026)
